The values below come from patent publication US20090270453A1, “ANTI-MANIC EFFECTIVE DOSES OF SERTINDOLE” (priority 2007, published 2009).

The subject of test [1] is AMPH+CDP induced locomotor activity. The following applies: rats; Lamberty, et al. 2001; cited from earlier work.
Test [2] has as its system sensitized response to an acute AMPH challenge. As to conditions: mice; Husum 2005, poster no. 32.06; cited from earlier work.
Test [3] relates to baseline locomotor activity of control rats. Put plainly: Baseline locomotor activity of control rats in locomotor box. The format is in vivo, Male Wistar rats. The following applies: for Average Crossings in % (SEM): % of control group set to 100%; for effect on baseline (basal) locomotor activity: locomotor box about 2 hours, administered doses. As to the method:
(§1) Subjects: Male Wistar rats weighing about 150-200 g were housed 2-4 rats per cage in makrolon cages (about 20×about 35 cm) equipped with sawdust and with one plastic house for enrichment. The animals were kept at room temperature (about 20° C.±2) in about 12-hour light/dark cycle (lights on at about 06:00) with free access to food and tap water. The rats were allowed to acclimatize to the animal facility premises for about 5-9 days prior to the initiation of experiments. The animals were taken to the experimental room on the day before the experiment and weighed.
(§2) Test procedure: For the assessment of locomotor activity, makrolon cages (about 20×about 35 cm) with a thin layer of standard bedding material were placed in a U-frame equipped longitudinally with 4 infrared light sources and photocells placed about 4 cm above the bottom of the cage. All experiments were conducted under normal light conditions. The animals were placed individually in test boxes and the assessment of locomotor activity was immediately begun. During the test session, locomotor activity was recorded as crossings of infrared light beams and total locomotor activity was the accumulated number of crossings over the approximately 120-min period. The recording of a motility count required the crossing of two adjacent light beams, thus avoiding counts induced by stationary movements of the rat.
Statistical analysis of differences in total locomotor activity (normalized data) among the various treatment groups was carried out using a two-way ANOVA with factors treatment (AMPH+CDP vs. vehicle) and drug (drug vs. vehicle). In case of a significant interaction, a post hoc Student-Newman-Keuls Method was used for multiple comparisons. A probability level of 0.05 was considered significant.

For test [4], the system named is sensitized response to an acute AMPH challenge. Description: Sensitized AMPH response model (induced hyperactivity). The format is in vivo, Male Crl:NMRI mice. As to conditions: for effect on AMPH induced hyperactivity in sensitized mice: s.c. pre-treatment, about 30 min recording. As to the method: (§3) Subjects: Male Crl:NMRI mice (about 20 g) were at the animal facility about 5 days prior to the start of the experiment and were housed in climate-controlled animal facilities under normal light-dark cycle (lights on about 06:00 to about 18:00). The mice were kept 6 per cage and allowed enrichment (two plastic houses+nesting material).
(§4) Drugs: All compounds were administered subcutaneously and are listed as free base doses. The mice were pre-treated with either d-amphetamine (about 1.8 mg/kg) or vehicle (about 0.9% NaCl, about 10 ml/kg) once daily for five consecutive days.
Test procedure: About 17-19 days after the pre-treatment, the animals were treated with test substance or vehicle and individually placed to habituate for about 30 min in motility boxes (about 20×about 32 cm) equipped with about 5×about 8 light sources and infrared cells spaced by about 4 cm. The light beams crossed the cage 1.8 cm above the bottom of the cage. Recording of a motility count requires interruption of adjacent light beams, thus avoiding counts induced by stationary movements of the mice. After habituation, an acute dose of d-amphetamine (about 0.95 mg/kg) or vehicle was administered and data acquisition was begun and lasted for about 30 min.
Data Analysis: Data were averaged within the groups (n=12) and are presented as mean±SD. The acute effect of test substance against the sensitized response to amphetamine was statistically evaluated by one-way ANOVA of variance: Dunn's method was applied for post hoc testing against the sensitized group receiving […]

Test [5] concerns AMPH+CDP induced locomotor activity. Put plainly: Sensitized AMPH+CDP response model (induced locomotor hyperactivity). The format is in vivo, Male Wistar rats. The following applies: for effect on AMPH+CDP induced locomotor activity (hyperactivity): rats, s.c. pre-treatment, about 120 min test-period. The procedure: as §1
Drugs: All drugs are listed as mg free base/kg with the exception of lithium (mEq/kg). Drug solutions were titrated into a pH range of about 4.5-7.0 for subcutaneous (s.c.) administration. To induce hyperactivity, amphetamine sulphate (about 0.9 mg/kg in about 0.9% NaCl, about 1 ml/kg) followed by CDP (7-Chloro-2-(methylmino)-5-phenyl-3h-1,4-benzodiazepine-4-oxide, about 8.9 mg/kg in about 10% hydroxypropyl-beta-cyclodextrin) was administrated about 35 minutes before the test. A parallel set of control animal received two vehicle injections. Lithium chloride (about 0.2-0.9 mEq/kg) was dissolved in distilled water isosmotically supplemented with NaCl, and administrated about 210 minutes before testing. Lamotrigine (6-(2,3-Dichloro-phenyl)-[1,2,4]-triazine-3,5-diamine, about 2.5-80 mg/kg) was dissolved in about 10% hydroxypropyl-beta-cyclodextrin and administrated about 30 minutes before the test.
as §2
Data Analysis: The average total basal locomotor activity of the control groups in the different experiments varied between 322-516 light beam crossings (see Table 1). Due to this variation, the results in each experiment were normalized to percentage activity relative to the average total locomotor activity of control group that was set as 100%. Statistical analysis of differences in total locomotor activity (normalized data) among the various treatment groups was carried out using a two-way ANOVA with factors treatment (AMPH+CDP vs. vehicle) and drug (drug vs. vehicle). In case of a significant interaction, a post hoc Student-Newman-Keuls Method was used for multiple comparisons. A probability level of 0.05 was considered significant.
Crossings of light-beams as a measure of locomotor activity over about a 120 min test-period is shown as percentage of the control group-level that is set to 100%. The bars show the mean±SEM for each group and the dots show the activity of individual rats (n=10-12). Administration of amphetamine (about 0.9 mg/kg, s.c.) and chlordiazepoxide (about 8.9 mg/kg, s.c.) produced a significant increase in locomotor activity (***p<0.001 vs. control group (O) in all experiments).

The next test relates to saline activity. Put plainly: Activity of saline (non-AMPH) mice in the sensitized AMPH response model. The class given is in vivo, Male Crl:NMRI mice. The following applies: sertindole about 0.63 mg/kg. The procedure: as §3, §4
Test procedure: About 17-19 days after the pre-treatment, the animals were treated with test substance or vehicle and individually placed to habituate for about 30 min in motility boxes (about 20×about 32 cm) equipped with about 5×about 8 light sources and infrared cells spaced by about 4 cm. The light beams crossed the cage 1.8 cm above the bottom of the cage. […]
Data Analysis: Data were averaged within the groups (n=12) and are presented as mean±SD. The acute effect of test substance against the sensitized response to amphetamine was statistically evaluated by one-way ANOVA of variance: Dunn's method was applied for post hoc testing against the sensitized group receiving (NaCl, about 1 ml/kg) followed by CDP (about 8.9 mg/kg in 10% hydroxypropyl-beta-cyclodextrin) was administrated about 35 minutes before the test. […]

The next test deals with serotonin 5-HT2. As to conditions: Sanchez et al. 1991; Arnt and Skarsfeldt 1998; cited from earlier work.
For the next test, the target named is dopamine D2 (Homo sapiens, UniProt P14416). As to conditions: Sanchez et al. 1991; Arnt and Skarsfeldt 1998; cited from earlier work.
Another test concerns α1-adrenergic receptors. As to conditions: Sanchez et al. 1991; Arnt and Skarsfeldt 1998; cited from earlier work.
The next test has as its system schizophrenic patients. As to conditions: human clinical studies; Daniel D, et al. 1995; cited from earlier work.

The structures appear in SMILES notation. Entries after “also recorded” stand apart in the source; their conditions may differ.

Chain of dopamine D2 (P14416 whole entry): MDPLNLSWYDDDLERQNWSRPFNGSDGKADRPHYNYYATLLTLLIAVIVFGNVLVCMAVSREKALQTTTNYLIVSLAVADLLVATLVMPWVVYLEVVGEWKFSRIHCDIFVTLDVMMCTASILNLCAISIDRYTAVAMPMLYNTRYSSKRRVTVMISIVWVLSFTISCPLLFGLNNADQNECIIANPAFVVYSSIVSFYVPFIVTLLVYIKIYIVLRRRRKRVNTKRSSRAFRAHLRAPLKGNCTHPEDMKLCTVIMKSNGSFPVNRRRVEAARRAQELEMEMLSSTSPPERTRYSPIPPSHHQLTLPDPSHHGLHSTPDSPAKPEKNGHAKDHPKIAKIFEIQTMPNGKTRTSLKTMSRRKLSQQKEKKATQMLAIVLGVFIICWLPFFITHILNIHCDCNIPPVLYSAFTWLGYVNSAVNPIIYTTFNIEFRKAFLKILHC

Take `NC(=O)N1c2ccccc2C=Cc2ccccc21` [carbamazepine]: the “effectiveness in the AMPH+CDP induced hyperactivity model” value in test [1] is given as “effective”. Moreover, in test [2], the “effect on the sensitized response to an acute AMPH challenge” value (“effect on the sensitized response” below) was “dose-dependently abolish; also recorded: reversed the effect of acute AMPH administration”.
Turning to `CN(C)CCCC1(c2ccc(F)cc2)OCc2cc(C#N)ccc21` (centres unmarked) [citalopram], the “Average Crossings in % (SEM)” value in [3] (0.8 mg/kg) was 71.0%. In addition, the “effect on baseline (basal) locomotor activity” value (shortened to “effect on baseline”) in test [3] is listed as “no significant effect”. The “effect on AMPH induced hyperactivity in sensitized mice” value in test [4] is “no effect”; in test [4] (listed as Citalopram), “inactive”.
For the compound `CCCC(CCC)C(=O)O` [valproate], the “effectiveness in the AMPH+CDP induced hyperactivity model” value in test [1] is given as “effective”. Also, in [2], the “effect on the sensitized response” value is listed as “dose-dependently abolish; also recorded: reversed the effect of acute AMPH administration”.
`O=C(CCCN1CCC(O)(c2ccc(Cl)cc2)CC1)c1ccc(F)cc1` [haloperidol]: the “effect on the sensitized response” value in test [2] was “reversed the effect of acute AMPH administration”.
`O=C1NCCN1CCN1CCC(c2cn(-c3ccc(F)cc3)c3ccc(Cl)cc23)CC1` [sertindole]: in [5], the “effect on AMPH+CDP induced locomotor activity (hyperactivity)” value was “reduced the induced locomotor activity; also recorded: significantly decreased; also recorded: active”. For the same compound, the “significance of reduction of AMPH+CDP induced locomotor activity” value is “significant” in [5] (sertindole about 0.16 mg/kg, about 120 min s.c. pre-treatment) and “significant” in test [5] (sertindole about 1.25 mg/kg, about 120 min s.c. pre-treatment). Besides, the entries for the “Average Crossings in % (SEM)” value in test [3] (0.02 mg/kg), in test [3] (0.16 mg/kg) and in test [3] (1.25 mg/kg) were 116.7%, 119.9% and 132.4%, respectively. In addition, the “effect on baseline” value in test [3] is on record as “no significant effect”. For the same compound, the “effect on AMPH induced hyperactivity in sensitized mice” value in test [4] is listed as “reversed the induced hyperactivity; also recorded: significantly decreased; also recorded: active”. In [4] (sertindole 0.16 mg/kg), the “effect on induced hyperactivity” value was “significantly reversed the induced hyperactivity”. For the same compound, the “effect on saline activity” value with saline activity was “significantly decreased the saline activity”. Further, the “affinity for serotonin 5-HT2” value with serotonin 5-HT2 was “high affinity”. Also, on dopamine D2, the “affinity for dopamine D2” value is on record as “high affinity”. Further, the “affinity for α1-adrenergic receptors” value in the test on α1-adrenergic receptors is “high affinity”. Also, in the test with schizophrenic patients, the “doses effective to treat schizophrenic patients” value is 12 to 24 mg/day.
Regarding `Nc1nnc(-c2cccc(Cl)c2Cl)c(N)n1` [lamotrigine, 6-(2,3-Dichloro-phenyl)-[1,2,4]-triazine-3,5-diamine], the “significance of reduction of AMPH+CDP induced locomotor activity” value in test [5] (lamotrigine about 20 mg/kg, about 30 min s.c. pre-treatment) is reported as “significant”; in test [5] (lamotrigine about 20 mg/kg, about 30 min s.c. pre-treatment, listed as Lamotrigine) it was “significantly counteracted”; in test [5] (lamotrigine about 40 mg/kg, about 30 min s.c. pre-treatment), “significant”; in test [5] (lamotrigine about 40 mg/kg, about 30 min s.c. pre-treatment, listed as Lamotrigine), “significantly counteracted”; in test [5] (lamotrigine about 80 mg/kg, about 30 min s.c. pre-treatment), “significant”; in test [5] (lamotrigine about 80 mg/kg, about 30 min s.c. pre-treatment, listed as Lamotrigine), “significantly counteracted”. The “effect on AMPH+CDP induced locomotor activity (hyperactivity)” value was “significantly reduced; also recorded: reduced the induced locomotor activity” in test [5]; “significantly and dose-dependently decreased” in [5] (listed as Lamotrigine). In addition, the “Average Crossings in % (SEM)” value in test [3] (2.5 mg/kg) turned out to be 114.5%; in test [3] (10 mg/kg) it was 107.9%; in [3] (20 mg/kg), 97.2%; in test [3] (40 mg/kg) it was 82.0%; in [3] (80 mg/kg), 83.0%. Also, the “effect on baseline” value in [3] is recorded as “not reduced; also recorded: no significant effect”. The “effect on the sensitized response” value in test [2] is reported as “dose-dependently abolish; also recorded: reversed the effect of acute AMPH administration”.
